Laboratory results as given in paper PMC12222954 (Nature Communications, 2025).

Key:
[1] = assay type: in vivo; settings: SD rats; for effect on the intestinal absorption of capecitabine: COS 250 mg/kg
P-gp [2] = molecular target: T1, P-gp (Homo sapiens, UniProt P08183); experiment: SPR affinity to P-gp in SMALP-MCF-7/ADR liposomes; assay type: binding
paraquat poisoning [3] = assay type: in vivo, SD rats; settings: for survival rate: PQ-intoxicated rats, oral 2 h post-intoxication, over 15 days
paraquat poisoning [4] = experiment: Survival of paraquat-poisoned abcb1; assay type: in vivo; settings: PQ-intoxicated abcb1(-/-) mice, 15 days
[5] = Intestinal transport rate, everted intestinal sac model; assay type: in vitro ADME, SD rats; settings: pre-incubation 40 min
[6] = system: tight junctions between intestinal epithelial cells; experiment: TEM observation of tight junctions after oral GlcN; assay type: in vivo, SD rats; settings: GlcN 250 mg/kg, 20 min
Caco-2 cells [7] = experiment: Cell viability, Cell Counting Kit-8; assay type: cell-based; settings: 48 h
P-gp [8] = molecular target: T1, P-gp; experiment: Efflux of Rh123 from preloaded Caco-2 cells; assay type: cell-based; settings: Rh123-preloaded Caco-2 cells, vs control
P-gp [9] = molecular target: T1, P-gp; experiment: Cellular uptake of Rh123 in P-gp silenced; assay type: cell-based; settings: P-gp knockdown Caco-2 cells, various concentrations
[10] = Pharmacokinetics of digoxin in wild-type FVB mice with or without GlcN; assay type: in vivo
[11] = Pharmacokinetics of digoxin in abcb1; assay type: in vivo; settings: abcb1(-/-) mice
P-gp [12] = molecular target: T1, P-gp; assay type: biochemical; settings: GlcN 10 mM, 5 min pre-incubation
P-gp-mediated ATPase = P-gp-mediated ATPase (Homo sapiens, UniProt P08183); experiment: P-gp-mediated ATPase activity in Caco-2 cells; assay type: cell-based; settings: 10 μM GlcN
P-gp-mediated ATPase, sequence (P08183 whole entry): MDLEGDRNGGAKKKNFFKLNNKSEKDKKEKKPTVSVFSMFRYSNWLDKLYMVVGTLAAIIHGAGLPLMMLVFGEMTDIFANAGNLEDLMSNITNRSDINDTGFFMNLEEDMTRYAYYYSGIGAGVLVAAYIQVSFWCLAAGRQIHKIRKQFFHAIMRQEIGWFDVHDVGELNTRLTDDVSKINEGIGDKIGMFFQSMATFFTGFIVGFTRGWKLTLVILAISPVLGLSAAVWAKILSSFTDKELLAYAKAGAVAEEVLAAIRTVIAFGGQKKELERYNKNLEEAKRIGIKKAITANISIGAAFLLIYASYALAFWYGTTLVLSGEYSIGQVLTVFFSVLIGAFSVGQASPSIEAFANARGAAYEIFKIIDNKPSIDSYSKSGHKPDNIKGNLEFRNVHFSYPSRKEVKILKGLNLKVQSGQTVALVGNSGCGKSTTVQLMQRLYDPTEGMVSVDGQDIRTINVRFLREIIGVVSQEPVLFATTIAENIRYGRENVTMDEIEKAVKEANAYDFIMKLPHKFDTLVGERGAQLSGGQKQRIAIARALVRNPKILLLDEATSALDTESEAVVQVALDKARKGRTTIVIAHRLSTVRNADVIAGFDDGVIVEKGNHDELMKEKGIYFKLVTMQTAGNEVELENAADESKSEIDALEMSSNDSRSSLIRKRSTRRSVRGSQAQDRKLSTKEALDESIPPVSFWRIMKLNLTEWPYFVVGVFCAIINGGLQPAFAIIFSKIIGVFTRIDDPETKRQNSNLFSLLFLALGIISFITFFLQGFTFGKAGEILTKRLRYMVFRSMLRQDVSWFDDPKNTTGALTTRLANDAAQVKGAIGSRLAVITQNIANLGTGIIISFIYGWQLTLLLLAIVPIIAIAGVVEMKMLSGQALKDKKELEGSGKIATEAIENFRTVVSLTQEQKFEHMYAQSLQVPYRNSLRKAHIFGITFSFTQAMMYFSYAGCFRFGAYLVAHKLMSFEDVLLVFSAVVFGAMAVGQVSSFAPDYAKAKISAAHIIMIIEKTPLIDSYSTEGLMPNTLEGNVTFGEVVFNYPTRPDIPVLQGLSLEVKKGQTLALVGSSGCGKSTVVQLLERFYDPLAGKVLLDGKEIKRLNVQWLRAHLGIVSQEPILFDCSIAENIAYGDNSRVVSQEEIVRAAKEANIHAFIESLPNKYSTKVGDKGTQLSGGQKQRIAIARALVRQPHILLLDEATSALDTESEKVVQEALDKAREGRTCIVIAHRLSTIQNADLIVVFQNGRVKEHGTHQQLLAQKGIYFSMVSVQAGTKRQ

Caco-2 cells [13] = assay type: cell-based
A549 cells = assay type: cell-based
P-gp [14] = molecular target: T1, P-gp; experiment: Transport of paraquat in P-gp recombinant inside-out vesicle model; assay type: biochemical; settings: P-gp inside-out vesicles
[15] = assay type: in vivo, SD rats; settings: Sprague-Dawley, rat, oral
[16] = assay type: in vivo; settings: FVB mice, GlcN 500 mg/kg
[17] = assay type: in vivo; settings: abcb1(-/-) mice, GlcN 500 mg/kg
paraquat poisoning [18] = experiment: Survival of paraquat-poisoned FVB mice; assay type: in vivo, wt FVB mice; settings: PQ-intoxicated FVB mice
[19] = Molar osmotic pressure of solution after adding GlcN or Glu; assay type: physicochemical; settings: GlcN concentrations below 20 mM
CYP3A4 = CYP3A4 (Homo sapiens, UniProt P08684); settings: 30 min incubation, 100 μM GlcN
CYP3A4, sequence (P08684 whole entry): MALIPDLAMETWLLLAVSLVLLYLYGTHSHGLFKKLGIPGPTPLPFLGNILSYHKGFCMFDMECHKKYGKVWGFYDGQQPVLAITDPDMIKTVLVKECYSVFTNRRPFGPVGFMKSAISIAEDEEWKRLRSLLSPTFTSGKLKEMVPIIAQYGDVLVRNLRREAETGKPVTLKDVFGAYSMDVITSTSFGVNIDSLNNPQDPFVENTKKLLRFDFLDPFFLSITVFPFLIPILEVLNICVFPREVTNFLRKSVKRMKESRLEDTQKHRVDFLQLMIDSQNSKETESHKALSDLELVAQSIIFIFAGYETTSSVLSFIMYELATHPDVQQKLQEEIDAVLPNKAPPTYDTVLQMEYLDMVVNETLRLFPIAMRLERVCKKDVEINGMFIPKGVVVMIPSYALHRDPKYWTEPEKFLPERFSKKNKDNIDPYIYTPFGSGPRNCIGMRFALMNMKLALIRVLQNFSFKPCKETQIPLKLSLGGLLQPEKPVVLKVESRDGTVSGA

T1 sequence (P08183 whole entry): as the sequence (P08183 whole entry) above

## N[C@H]1[C@H](O[C@H]2[C@H](O)[C@@H](N)C(O)O[C@@H]2CO)O[C@H](CO)[C@@H](O)[C@@H]1O (some centres unmarked) [COS2, chitobiose]
[1]
  effect on the intestinal absorption of capecitabine: inhibited

## N[C@H]1[C@H](O[C@H]2[C@H](O)[C@@H](N)[C@H](O[C@H]3[C@H](O)[C@@H](N)C(O)O[C@@H]3CO)O[C@@H]2CO)O[C@H](CO)[C@@H](O)[C@@H]1O (some centres unmarked) [COS3, chitotriose]
P-gp [2]
  Kd: 276 µM
[1]
  AUC of capecitabine, of the control group: 12.65%
  effect on the intestinal absorption of capecitabine: inhibited

## N[C@H]1[C@H](O[C@H]2[C@H](O)[C@@H](N)[C@H](O[C@H]3[C@H](O)[C@@H](N)[C@H](O[C@H]4[C@H](O)[C@@H](N)[C@H](O[C@H]5[C@H](O)[C@@H](N)C(O)O[C@@H]5CO)O[C@@H]4CO)O[C@@H]3CO)O[C@@H]2CO)O[C@H](CO)[C@@H](O)[C@@H]1O (some centres unmarked) [COS5, chitopentaose]
[1]
  effect on the intestinal absorption of capecitabine: facilitated

## C[C@@H]1C[C@H]2[C@@H]3CCC4=CC(=O)C=C[C@]4(C)[C@@]3(F)[C@@H](O)C[C@]2(C)[C@@]1(O)C(=O)CO [DEX, dexamethasone, reference compound]
Paraquat poisoning [3]
  survival rate: 30%
Paraquat poisoning [4]
  effect on survival: does not improve the survival rate within 15 days

## N[C@H]1C(O)O[C@H](CO)[C@@H](O)[C@@H]1O (some centres unmarked) [GlcN, Glucosamine]
[5]
  inhibitory effect on intestinal drug transport after prolonged pre-incubation: reverses the inhibitory effect
[6]
  tight junctions between intestinal epithelial cells before and after oral GlcN: remained unchanged
Caco-2 cells [7]
  concentrations that did not induce significant cytotoxicity: below 50 mM
P-gp [8]
  effect on fluorescence intensity of intracellular Rh123 / Rh123 transport: notably reduced
P-gp [9]
  effect on intracellular accumulation level of Rh123: hardly had any effect
[10]
  effect on oral absorption of digoxin: significantly inhibited
[11]
  effect on in vivo pharmacokinetic behavior of digoxin: does not affect
P-gp [12]
  transport activity relative to the control group: ~ 1.48 times
P-gp-mediated ATPase
  ATPase activity compared to baseline at peak effect: doubled
Caco-2 cells [13]
  effect on resistance to paraquat (cell viability): significantly enhanced the resistance
A549 cells
  effect on resistance to paraquat (cell viability): significantly enhanced the resistance
P-gp [14]
  effect on paraquat transport: enhanced its transport
[15]
  reduction of PQ peak plasma concentration and bioavailability: ~ 60%
[16]
  effect on PQ absorption: significantly reduced
[17]
  effect on PQ pharmacokinetics: no substantial effect
Paraquat poisoning [3]
  survival rate: 60%
Paraquat poisoning [18]
  effect on survival rate: improves the survival rate
Paraquat poisoning [4]
  effect on survival: fails to significantly rescue
[19]
  ΔOsmolality: below 20 mOsmol/kg
CYP3A4
  boost of CYP3A4 enzyme activity compared to the control group: 301%

## C[n+]1ccc(-c2cc[n+](C)cc2)cc1 [PQ, N,N’-dimethyl-4,4’-bipyridinium]
Paraquat poisoning [3]; paraquat 350 mg/kg oral, SD rats
  time within which all poisoned rats without administration died: ≤ 6 days

## OC[C@H]1OC(O)[C@H](O)[C@@H](O)[C@@H]1O (some centres unmarked) [glucose, reference compound]
P-gp [8]
  effect on fluorescence intensity of intracellular Rh123 / Rh123 transport: no discernible effect
